Source: PMC8413292, “Small-molecule polymerase inhibitor protects non-human primates from measles and reduces shedding” (Nature Communications, 2021)
“And” between values parts separate entries of the source, which are not always exact repeats. Equal entries are not always repeated.

What was measured:
[1] = test system: MeV N gene RNA; test: Quantitative RT-PCR of MeV N RNA in PBMCs; assay type: in vivo
Procedure: Organs (21 days post-infection) and PBMCs (twice a week) were frozen in RNAlater (Qiagen) at −80 °C until further processing. For the deceased animal, organs were frozen in RNAlater at the day of death. Lymph nodes were thawed on ice, transferred to TRIzol (ambion life technologies) and homogenized using a tissue homogenizer. Total RNA of lymph nodes and PBMCs was extracted following the TRIzol manufacturer’s protocol. RNA (1000 ng for lymph nodes; 110 ng for PBMCs) was then subjected to reverse transcription using random hexamer primers and Superscript III reverse transcriptase in accordance with the manufacturer’s protocols. Subsequent quantitative PCR (qPCR) was carried out using primer pairs specific for a fragment in the MeV N gene[23] or GAPDH gene(Supplementary Table 2) and the PowerUp SYBR Green Master Mix (Thermo Fisher Scientific) in an Applied Biosystems 7500 Real-Time PCR system. Samples were normalized for GAPDH. The comparative (ΔΔCt) Ct method was applied to determine relative amounts of N-encoding RNA present in samples from treated animals compared to those obtained from untreated control animals (lymph nodes) or compared to those obtained from untreated control animals on day 7 post-infection (peak PBMC virus titer).

[2] = test system: MV/FrankfurtMain.DEU/17.11 (genotype D8); test: Clinical signs (rash score) in MeV-infected squirrel monkeys; conditions: for animals that developed spots or mild rash in the face or inguinal region: 50 mg/kg b.i.d. 14 days
Procedure: All animal experiments were carried out in compliance with the regulations of German animal protection laws and authorized by the Regierungspräsidium Darmstadt, Germany (Dezernat V54 – Veterinärwesen und Verbraucherschutz, Hilpertstrasse 31, 64295 Darmstadt). Adult male and female squirrel monkeys (Saimiri sciureus) were obtained from BioPRIM, 31450 Baziege, or CNRS 0846 Primatologie, 13790 Rousset, France. Each experimental group was housed in a separate room, and animals of the same sex were caged together within the respective groups. For the single-dose pharmacokinetic experiment, animals were anesthetized, and the drug was given through a stomach tube at a concentration of 50 mg/kg bodyweight. Blood samples were collected after 15, 30, and 60 min, and 2, 3, 6, and 24 h. For efficacy assessment, groups of 6 animals were left untreated or treated with 50 mg/kg of ERDRP-0519 twice daily for two weeks, starting either 12 h before or 3 or 7 days after intranasal infection with 10^6 TCID50 of MV/FrankfurtMain.DEU/17.11. Clinical signs, rectal temperature, and weight were recorded daily, and throat swabs and blood samples were collected before infection and twice weekly thereafter. On day 21 post-infection, the animals were euthanized, necropsied, and samples were collected for histological analysis.

Cn1nc(C(F)(F)F)cc1C(=O)Nc1ccc(S(=O)(=O)N2CCCC[C@H]2CCN2CCOCC2)cc1 [ERDRP-0519]
Supp. Figure 3a, relative MeV N RNA in PBMCs, group mean (Mean 2) ([1]; prophylactic, Day 0): -12.26
Supp. Figure 3a, relative MeV N RNA in PBMCs, group mean (Mean 2) ([1]; prophylactic, Day 3): -12.06
Supp. Figure 3a, relative MeV N RNA in PBMCs, group mean (Mean 2) ([1]; prophylactic, Day 7): -11.48
Supp. Figure 3a, relative MeV N RNA in PBMCs, group mean (Mean 2) ([1]; prophylactic, Day 10): -12.34
Supp. Figure 3a, relative MeV N RNA in PBMCs, group mean (Mean 2) ([1]; prophylactic, Day 14): -13.16
Supp. Figure 3a, relative MeV N RNA in PBMCs, group mean (Mean 2) ([1]; prophylactic, Day 17): -11.47
Supp. Figure 3a, relative MeV N RNA in PBMCs, group mean (Mean 2) ([1]; prophylactic, Day 21): -10.12
Supplemental Figure 3a source data, relative MeV N RNA in PBMCs, individual animals ([1]; prophylactic, time (d) 0): -12.3202 and -6.433 and -10.4614 and -17.6101 and -12.9356 and -13.7878
Supplemental Figure 3a source data, relative MeV N RNA in PBMCs, individual animals ([1]; prophylactic, time (d) 3): -12.847 and -12.9062 and -10.7172 and -12.2727 and -12.1274 and -11.494
Supplemental Figure 3a source data, relative MeV N RNA in PBMCs, individual animals ([1]; prophylactic, time (d) 7): -12.6218 and -9.583 and -12.0312 and -12.5732 and -12.8193 and -9.245
Supplemental Figure 3a source data, relative MeV N RNA in PBMCs, individual animals ([1]; prophylactic, time (d) 10): -9.991 and -12.9071 and -11.8528 and -13.7115 and -14.2547 and -11.2939
Supplemental Figure 3a source data, relative MeV N RNA in PBMCs, individual animals ([1]; prophylactic, time (d) 14): -12.3346 and -10.7326 and -10.4158 and -12.9517 and -16.1088 and -16.4382
Supplemental Figure 3a source data, relative MeV N RNA in PBMCs, individual animals ([1]; prophylactic, time (d) 17): -14.0262 and -7.645 and -8.833 and -10.0876 and -14.1769 and -14.0235
Supplemental Figure 3a source data, relative MeV N RNA in PBMCs, individual animals ([1]; prophylactic, time (d) 21): -13.9134 and -10.311 and -12.0659 and -11.4656 and -0.8977 and -12.0848
Supp. Figure 3a, relative MeV N RNA in PBMCs, group mean (Mean 2) ([1]; therapeutic (d3), Day 0): -13.2
Supp. Figure 3a, relative MeV N RNA in PBMCs, group mean (Mean 2) ([1]; therapeutic (d3), Day 3): -12.07
Supp. Figure 3a, relative MeV N RNA in PBMCs, group mean (Mean 2) ([1]; therapeutic (d3), Day 7): -9.205
Supp. Figure 3a, relative MeV N RNA in PBMCs, group mean (Mean 2) ([1]; therapeutic (d3), Day 10): -9.289
Supp. Figure 3a, relative MeV N RNA in PBMCs, group mean (Mean 2) ([1]; therapeutic (d3), Day 14): -11.53
Supp. Figure 3a, relative MeV N RNA in PBMCs, group mean (Mean 2) ([1]; therapeutic (d3), Day 17): -11.67
Supp. Figure 3a, relative MeV N RNA in PBMCs, group mean (Mean 2) ([1]; therapeutic (d3), Day 21): -13.06
Supplemental Figure 3a source data, relative MeV N RNA in PBMCs, individual animals ([1]; therapeutic (d3), time (d) 0): -12.185 and -15.2199 and -11.755 and -14.0483 and -12.7958
Supplemental Figure 3a source data, relative MeV N RNA in PBMCs, individual animals ([1]; therapeutic (d3), time (d) 3): -13.2368 and -9.809 and -12.089 and -11.8661 and -12.6935 and -12.7459
Supplemental Figure 3a source data, relative MeV N RNA in PBMCs, individual animals ([1]; therapeutic (d3), time (d) 7): -6.7874 and -7.787 and -8.103 and -8.648 and -13.5153 and -10.39
Supplemental Figure 3a source data, relative MeV N RNA in PBMCs, individual animals ([1]; therapeutic (d3), time (d) 10): -4.115 and -10.1748 and -9.33 and -8.711 and -14.231 and -9.172
Supplemental Figure 3a source data, relative MeV N RNA in PBMCs, individual animals ([1]; therapeutic (d3), time (d) 14): -9.809 and -12.4589 and -12.5095 and -12.5754 and -8.538 and -13.3167
Supplemental Figure 3a source data, relative MeV N RNA in PBMCs, individual animals ([1]; therapeutic (d3), time (d) 17): -10.29 and -10.5346 and -12.5229 and -11.5387 and -13.4468
Supplemental Figure 3a source data, relative MeV N RNA in PBMCs, individual animals ([1]; therapeutic (d3), time (d) 21): -15.6913 and -17.4162 and -8.965 and -9.87 and -13.3809
Supp. Figure 3a, relative MeV N RNA in PBMCs, group mean (Mean 2) ([1]; therapeutic (d7), Day 0): -11.48
Supp. Figure 3a, relative MeV N RNA in PBMCs, group mean (Mean 2) ([1]; therapeutic (d7), Day 3): -11.42
Supp. Figure 3a, relative MeV N RNA in PBMCs, group mean (Mean 2) ([1]; therapeutic (d7), Day 7): -3.189
Supp. Figure 3a, relative MeV N RNA in PBMCs, group mean (Mean 2) ([1]; therapeutic (d7), Day 10): -4.318
Supp. Figure 3a, relative MeV N RNA in PBMCs, group mean (Mean 2) ([1]; therapeutic (d7), Day 14): -7.135
Supp. Figure 3a, relative MeV N RNA in PBMCs, group mean (Mean 2) ([1]; therapeutic (d7), Day 17): -8.639
Supp. Figure 3a, relative MeV N RNA in PBMCs, group mean (Mean 2) ([1]; therapeutic (d7), Day 21): -9.558
Supplemental Figure 3a source data, relative MeV N RNA in PBMCs, individual animals ([1]; therapeutic (d7), time (d) 0): -14.3685 and -13.0066 and -11.8077 and -7.512 and -11.9115 and -10.2528
Supplemental Figure 3a source data, relative MeV N RNA in PBMCs, individual animals ([1]; therapeutic (d7), time (d) 3): -13.8644 and -13.9177 and -9.909 and -10.1407 and -11.3735 and -9.308
Supplemental Figure 3a source data, relative MeV N RNA in PBMCs, individual animals ([1]; therapeutic (d7), time (d) 7): -0.7497 and -4.549 and -6.525 and -1.948 and -0.04871 and -5.313
Supplemental Figure 3a source data, relative MeV N RNA in PBMCs, individual animals ([1]; therapeutic (d7), time (d) 10): -4.45
Supp. Figure 3a, relative MeV N RNA in PBMCs, Mean Diff. ([1]; untreated vs. prophylactic, Day 0): -1.268
Supp. Figure 3a, relative MeV N RNA in PBMCs, Mean Diff. ([1]; untreated vs. prophylactic, Day 3): 0.4295
Supp. Figure 3a, relative MeV N RNA in PBMCs, Mean Diff. ([1]; untreated vs. prophylactic, Day 7): 11.48
Supp. Figure 3a, relative MeV N RNA in PBMCs, Mean Diff. ([1]; untreated vs. prophylactic, Day 10): 11.3
Supp. Figure 3a, relative MeV N RNA in PBMCs, Mean Diff. ([1]; untreated vs. prophylactic, Day 14): 6.945
Supp. Figure 3a, relative MeV N RNA in PBMCs, Mean Diff. ([1]; untreated vs. prophylactic, Day 17): 2.967
Supp. Figure 3a, relative MeV N RNA in PBMCs, Mean Diff. ([1]; untreated vs. prophylactic, Day 21): 0.4094
Supp. Figure 3a, relative MeV N RNA in PBMCs, Mean Diff. ([1]; untreated vs. therapeutic (d3), Day 0): -0.325
Supp. Figure 3a, relative MeV N RNA in PBMCs, Mean Diff. ([1]; untreated vs. therapeutic (d3), Day 3): 0.4421
Supp. Figure 3a, relative MeV N RNA in PBMCs, Mean Diff. ([1]; untreated vs. therapeutic (d3), Day 7): 9.205
Supp. Figure 3a, relative MeV N RNA in PBMCs, Mean Diff. ([1]; untreated vs. therapeutic (d3), Day 10): 8.257
Supp. Figure 3a, relative MeV N RNA in PBMCs, Mean Diff. ([1]; untreated vs. therapeutic (d3), Day 14): 5.316
Supp. Figure 3a, relative MeV N RNA in PBMCs, Mean Diff. ([1]; untreated vs. therapeutic (d3), Day 17): 3.169
Supp. Figure 3a, relative MeV N RNA in PBMCs, Mean Diff. ([1]; untreated vs. therapeutic (d3), Day 21): 3.351
Supp. Figure 3a, relative MeV N RNA in PBMCs, Mean Diff. ([1]; untreated vs. therapeutic (d7), Day 0): -2.049
Supp. Figure 3a, relative MeV N RNA in PBMCs, Mean Diff. ([1]; untreated vs. therapeutic (d7), Day 3): -0.2124
Supp. Figure 3a, relative MeV N RNA in PBMCs, Mean Diff. ([1]; untreated vs. therapeutic (d7), Day 7): 3.189
Supp. Figure 3a, relative MeV N RNA in PBMCs, Mean Diff. ([1]; untreated vs. therapeutic (d7), Day 10): 3.285
Supp. Figure 3a, relative MeV N RNA in PBMCs, Mean Diff. ([1]; untreated vs. therapeutic (d7), Day 14): 0.916
Supp. Figure 3a, relative MeV N RNA in PBMCs, Mean Diff. ([1]; untreated vs. therapeutic (d7), Day 17): 0.1414
Supp. Figure 3a, relative MeV N RNA in PBMCs, Mean Diff. ([1]; untreated vs. therapeutic (d7), Day 21): -0.1552
severe or generalized rash ([2]; all treated groups): none of the treated animals experienced severe or generalized rash
animals that developed spots or mild rash in the face or inguinal region ([2]; day 3 therapeutic group): Four of six animals
deaths during the study ([2]; day 3 therapeutic group, day 15 post-infection, authors conclude unrelated to drug or MeV): One animal in the day 3 therapeutic group developed mild diarrhea and deceased
animals that developed spots or mild rash in the face or inguinal region ([2]; day 7 therapeutic group): all animals
measles-typical clinical signs ([2]; prophylactic group, 50 mg/kg b.i.d. 14 days from 12 h prior to infection): remained free of measles-typical clinical signs
